In the assay the target is human MDM2 protein (amino acids 2-188) (Homo sapiens (Human), UniProt Q00987). Nature of the assay: TR-FRET assay, p53-MDM2 Assay 2 (modified). Format: binding. The note with it: TR-FRET; 0.1 nM MDM2, 0.1 nM Europium labeled streptavidin, Tecan genios Pro reader; read-out: IC50 p53-MDM2 Assay 2. In a few lines: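 IC50 values were curve-fitted from the time-resolved 665/620 nm emission ratio after 340 nm excitation. The assay combined 0.625 nM europium-streptavidin donor with 1.25 nM C-terminally biotinylated MDM2 2–188 (15 min, RT), followed by 15 min with 10 nM Cy5-labeled p53 18–26 acceptor peptide.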

The text below walks through data of US9365576B2, “Pyrrolopyrrolidinone compounds” (Novartis AG, priority 2012, dated 2016).

human MDM2 protein (amino acids 2-188), sequence (Q00987 2-188): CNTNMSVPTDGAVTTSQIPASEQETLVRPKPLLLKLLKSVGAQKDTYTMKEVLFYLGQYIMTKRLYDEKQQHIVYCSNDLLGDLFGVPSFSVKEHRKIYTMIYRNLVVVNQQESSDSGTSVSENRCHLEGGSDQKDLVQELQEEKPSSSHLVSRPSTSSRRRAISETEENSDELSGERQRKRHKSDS

Consider `CNc1ncc(-c2cc3c(n2C(C)C)C(c2ccc(C#N)cc2)N(c2c[nH]c(=O)c(Cl)c2)C3=O)c(OC)n1` (stereo not drawn) [Example 137, 4-[5-(5-Chloro-6-oxo-1,6-dihydro-pyridin-3-yl)-1-isopropyl-2-(4-methoxy-2-methylamino-pyrimidin-5-yl)-4-oxo-1,4,5,6-tetrahydro-pyrrolo[3,4-b]pyrrol-6-yl]-benzonitrile], for which the IC50 (in general, the midpoint of a concentration-inhibition curve) was 0.321 nM. Regarding `CNC(=O)c1ccc(OC)c(-c2cc3c(n2C(C)C)C(c2ccc(Cl)cc2C)N(c2cc(Cl)ccc2C)C3=O)c1` (stereo not drawn) [Example 31, 3-[5-(5-Chloro-2-methyl-phenyl)-6-(4-chloro-2-methyl-phenyl)-1-isopropyl-4-oxo-1,4,5,6-tetrahydro-pyrrolo[3,4-b]pyrrol-2-yl]-4-methoxy-N-methyl-benzamide], the IC50 came to 0.184 nM. As to `COc1ncc(-c2cc3c(n2C(C)C)C(c2ccc(Cl)cc2)N(C2CCNCC2)C3=O)c(OC)n1` (stereo not drawn) [Example 106, 6-(4-Chloro-phenyl)-2-(2,4-dimethoxy-pyrimidin-5-yl)-1-isopropyl-5-piperidin-4-yl-5,6-dihydro-1H-pyrrolo[3,4-b]pyrrol-4-one], the IC50 was determined as 904 nM.

As to `COc1ccc(C(=O)N(C)C)cc1-c1cc2c(n1C(C)C)[C@H](c1ccc(Cl)cc1)N(c1cc(Cl)ccc1C)C2=O` [Example 20, 3-[(S)-5-(5-Chloro-2-methyl-phenyl)-6-(4-chloro-phenyl)-1-isopropyl-4-oxo-1,4,5,6-tetrahydro-pyrrolo[3,4-b]pyrrol-2-yl]-4-methoxy-N,N-dimethyl-benzamide], the IC50 came to 0.075 nM. Regarding `COc1ccccc1-c1c(F)c2c(n1C(C)C)C(c1ccc(Cl)cc1)N(c1cc(Cl)ccc1C)C2=O` (stereo not drawn) [Example 115, 5-(5-Chloro-2-methyl-phenyl)-6-(4-chloro-phenyl)-3-fluoro-1-isopropyl-2-(2-methoxy-phenyl)-5,6-dihydro-1H-pyrrolo[3,4-b]pyrrol-4-one], the IC50 worked out at 0.485 nM. With `CNc1ncc(-c2cc3c(n2C(C)C)[C@H](c2ccc(C#N)cc2)N(c2cc(Cl)cn(C)c2=O)C3=O)c(OC)n1` [Example 165, 4-[(S)-5-(5-Chloro-1-methyl-2-oxo-1,2-dihydro-pyridin-3-yl)-1-isopropyl-2-(4-methoxy-2-methylamino-pyrimidin-5-yl)-4-oxo-1,4,5,6-tetrahydro-pyrrolo[3,4-b]pyrrol-6-yl]-benzonitrile], the IC50 stood at 0.578 nM. With `COc1ccccc1-c1c(C#N)c2c(n1C(C)C)C(c1ccc(Cl)cc1)N(c1cc(Cl)ccc1C)C2=O` (stereo not drawn) [Example 59, 5-(5-Chloro-2-methyl-phenyl)-6-(4-chloro-phenyl)-1-isopropyl-2-(2-methoxy-phenyl)-4-oxo-1,4,5,6-tetrahydro-pyrrolo[3,4-b]pyrrole-3-carbonitrile], the IC50 stood at 0.163 nM. Regarding `COc1nc(N)ncc1-c1cc2c(n1C(C)C)[C@@H](c1ccc(C#N)cc1)N(c1ccc(F)c(Cl)c1)C2=O` [Example 172, 4-[(R)-2-(2-Amino-4-methoxy-pyrimidin-5-yl)-5-(3-chloro-4-fluoro-phenyl)-1-isopropyl-4-oxo-1,4,5,6-tetrahydro-pyrrolo[3,4-b]pyrrol-6-yl]-benzonitrile], the IC50 turned out to be 115 nM. Turning to `COc1ccc(C(=O)N2CCOCC2)cc1-c1cc2c(n1C(C)C)C(c1ccc(Cl)cc1)N(c1cc(Cl)c(=O)n(C)c1)C2=O` (stereo not drawn) [Example 47, 5-(5-Chloro-1-methyl-6-oxo-1,6-dihydro-pyridin-3-yl)-6-(4-chloro-phenyl)-1-isopropyl-2-[2-methoxy-5-(morpholine-4-carbonyl)-phenyl]-5,6-dihydro-1H-pyrrolo[3,4-B]pyrrol-4-one], the IC50 was found to be 0.15 nM.

For the compound `COc1nc(N(C)C)ncc1-c1cc2c(n1C(C)C)C(c1ccc(C#N)cc1)N(C1CCOCC1)C2=O` (stereo not drawn) [Example 158, 4-[2-(2-Dimethylamino-4-methoxy-pyrimidin-5-yl)-1-isopropyl-4-oxo-5-(tetrahydro-pyran-4-yl)-1,4,5,6-tetrahydro-pyrrolo[3,4-b]pyrrol-6-yl]-benzonitrile], the IC50 worked out at 1.34 nM. Turning to `COc1nc(N)ncc1-c1cc2c(n1C(C)C)C(c1ccc(Cl)cc1)N(c1c[nH]c(=O)c(Cl)c1)C2=O` (stereo not drawn) [Example 138, 2-(2-Amino-4-methoxy-pyrimidin-5-yl)-5-(5-chloro-6-oxo-1,6-dihydro-pyridin-3-yl)-6-(4-chloro-phenyl)-1-isopropyl-5,6-dihydro-1H-pyrrolo[3,4-b]pyrrol-4-one], the IC50 was 0.341 nM. For `COc1nc(N(C)C)ncc1-c1cc2c(n1C(C)C)C(c1ccc(Cl)cc1)N(c1cc(Cl)c(=O)n(C)c1)C2=O` (stereo not drawn) [Example 52, 5-(5-Chloro-1-methyl-6-oxo-1,6-dihydro-pyridin-3-yl)-6-(4-chloro-phenyl)-2-(2-dimethylamino-4-methoxy-pyrimidin-5-yl)-1-isopropyl-5,6-dihydro-1H-pyrrolo[3,4-b]pyrrol-4-one], the IC50 was found to be 0.137 nM. Turning to `COc1ccccc1-c1cc2c(n1C(C)C)C(c1ccc(Cl)cc1)N([C@H]1CC[C@H](O)CC1)C2=O` (stereo partly drawn) [Example 63, 6-(4-Chloro-phenyl)-5-(trans-4-hydroxy-cyclohexyl)-1-isopropyl-2-(2-methoxy-phenyl)-5,6-dihydro-1H-pyrrolo[3,4-b]pyrrol-4-one], the IC50 was determined as 8.13 nM. The value for `COc1nc(N(C)C)ncc1-c1cc2c(n1C(C)C)C(c1ccc(Cl)cc1C)N(c1cc(Cl)c(=O)n(C)c1)C2=O` (stereo not drawn) [Example 147, 5-(5-Chloro-1-methyl-6-oxo-1,6-dihydro-pyridin-3-yl)-6-(4-chloro-2-methyl-phenyl)-2-(2-dimethylamino-4-methoxy-pyrimidin-5-yl)-1-isopropyl-5,6-dihydro-1H-pyrrolo[3,4-b]pyrrol-4-one] was 0.164 nM. For the compound `COc1ncc(-c2cc3c(n2C(C)C)C(c2ccc(C#N)cc2)N(C2CCOCC2)C3=O)c(OC)n1` (stereo not drawn) [Example 157, 4-[2-(2,4-Dimethoxy-pyrimidin-5-yl)-1-isopropyl-4-oxo-5-(tetrahydro-pyran-4-yl)-1,4,5,6-tetrahydro-pyrrolo[3,4-b]pyrrol-6-yl]-benzonitrile], the IC50 was found to be 7.9 nM.

Take `COc1nc(N(C)C)ncc1-c1cc2c(n1C(C)C)C(c1ccc(C#N)cc1)N(c1c[nH]c(=O)c(Cl)c1)C2=O` (stereo not drawn) [Example 136, 4-[5-(5-Chloro-6-oxo-1,6-dihydro-pyridin-3-yl)-2-(2-dimethylamino-4-methoxy-pyrimidin-5-yl)-1-isopropyl-4-oxo-1,4,5,6-tetrahydro-pyrrolo[3,4-b]pyrrol-6-yl]-benzonitrile]: the IC50 was 0.131 nM. `COc1nc(N(C)C)ncc1-c1cc2c(n1C(C)C)C(c1ccc(Cl)cc1)N(c1cc(Cl)cn(C)c1=O)C2=O` (stereo not drawn) [Example 73, 5-(5-Chloro-1-methyl-2-oxo-1,2-dihydro-pyridin-3-yl)-6-(4-chloro-phenyl)-2-(2-dimethylamino-4-methoxy-pyrimidin-5-yl)-1-isopropyl-5,6-dihydro-1H-pyrrolo[3,4-b]pyrrol-4-one]: the IC50 came to 0.161 nM.

Consider `COc1nc(N(C)C)ncc1-c1cc2c(n1C(C)C)C(c1ccc(C#N)cc1)N(c1cc(Cl)c[nH]c1=O)C2=O` (stereo not drawn) [Example 127, 4-[5-(5-Chloro-2-oxo-1,2-dihydro-pyridin-3-yl)-2-(2-dimethylamino-4-methoxy-pyrimidin-5-yl)-1-isopropyl-4-oxo-1,4,5,6-tetrahydro-pyrrolo[3,4-b]pyrrol-6-yl]-benzonitrile], for which the IC50 is 0.359 nM. Turning to `COc1nc(N)ncc1-c1cc2c(n1C(C)C)[C@@H](c1ccc(C#N)cc1)N(c1cccc(Cl)c1F)C2=O` [Example 155, 4-[(R)-2-(2-Amino-4-methoxy-pyrimidin-5-yl)-5-(3-chloro-2-fluoro-phenyl)-1-isopropyl-4-oxo-1,4,5,6-tetrahydro-pyrrolo[3,4-b]pyrrol-6-yl]-benzonitrile], the IC50 was found to be 43 nM.

With `COc1ncc(-c2cc3c(n2C(C)C)[C@H](c2ccc(C#N)c(F)c2)N(c2cc(Cl)c(=O)n(C)c2)C3=O)c(OC)n1` [Example 237, (S)-4-(5-(5-Chloro-1-methyl-6-oxo-1,6-dihydropyridin-3-yl)-2-(2,4-dimethoxypyrimidin-5-yl)-1-isopropyl-4-oxo-1,4,5,6-tetrahydropyrrolo[3,4-b]pyrrol-6-yl)-2-fluorobenzonitrile], the IC50 is 0.107 nM. For the compound `COc1ncc(-c2cc3c(n2C(C)C)C(c2ccc(Cl)cn2)N(c2cc(Cl)ccc2C)C3=O)c(OC)n1` (stereo not drawn) [Example 235, 5-(5-Chloro-2-methylphenyl)-6-(5-chloropyridin-2-yl)-2-(2,4-dimethoxypyrimidin-5-yl)-1-isopropyl-1-5,6-dihydropyrrolo[3,4-b]pyrrol-4(1H)-one], the IC50 was 7.16 nM. For `CNS(=O)(=O)c1ccc(OC)c(-c2cc3c(n2C(C)C)C(c2ccc(Cl)cc2)N(c2cc(Cl)ccc2C)C3=O)c1` (stereo not drawn) [Example 62, 3-[5-(5-Chloro-2-methyl-phenyl)-6-(4-chloro-phenyl)-1-isopropyl-4-oxo-1,4,5,6-tetrahydro-pyrrolo[3,4-b]pyrrol-2-yl]-4-methoxy-N-methyl-benzenesulfonamide], the IC50 was found to be 0.169 nM.

With `CNC(=O)c1ccc(OC)c(-c2cc3c(n2C(C)C)C(c2ccc(Cl)cc2C)N(c2cc(Cl)c(=O)n(C)c2)C3=O)c1` (stereo not drawn) [Example 145, 3-[5-(5-Chloro-1-methyl-6-oxo-1,6-dihydro-pyridin-3-yl)-6-(4-chloro-2-methyl-phenyl)-1-isopropyl-4-oxo-1,4,5,6-tetrahydro-pyrrolo[3,4-b]pyrrol-2-yl]-4-methoxy-N-methyl-benzamide], the IC50 turned out to be 0.187 nM.

With `COc1ncc(-c2cc3c(n2C(C)C)C(c2ccc(C#N)c(F)c2)N(c2cc(Cl)cn(C)c2=O)C3=O)c(OC)n1` (stereo not drawn) [Example 198, 4-[5-(5-Chloro-1-methyl-2-oxo-1,2-dihydro-pyridin-3-yl)-2-(2,4-dimethoxy-pyrimidin-5-yl)-1-isopropyl-4-oxo-1,4,5,6-tetrahydro-pyrrolo[3,4-b]pyrrol-6-yl]-2-fluoro-benzonitrile], the concentration for half-maximal inhibition (IC50) is 0.691 nM.
